Reference: US20210293788A1, “METHOD FOR IDENTIFYING A CHEMICAL COMPOUND OR AGENT INDUCING UBIQUITINATION OF A PROTEIN OF INTEREST” (CeMM - Forschungszentrum fur Molekulare Medizin GmbH, priority 2018, published 2021)
“Also recorded” adds a separate entry of the source.

How the values were obtained:
RBM39 [1] = biological target: T1, RBM39 (Homo sapiens, UniProt Q14498+Q66K64); assay: Western blot of RBM39 levels in 293T DCAF15 KO versus DCAF15-reconstituted cells; type: cell-based; parameters: endogenous in cells; host or cells: 293T DCAF15 KO and 293T reconstituted with tagged DCAF15; conditions: 293T cells reconstituted with tagged DCAF15, 10 h treatment
Description: (§1) Given the structural similarity to indisulam, it was assayed if the two new test compounds would similarly lead to the degradation of RBM39 in a DCAF15-dependent manner. Towards that end, their effect on RBM39 levels in wildype cells as well as cells deficient for DCAF15 levels was tested. KBM7 (WT or knockout, FIG. 20) as well as 293T cells (DCAF15-HiBit overexpression vs knockout, see FIG. 21) were tested in various conditions of dCEMM.1 and/or dCEMM.2, comparing their effect to indisulam.

KBM7 cells = assay: Dose-ranging cellular viability assays in neddylation-impaired isogenic KBM7 cells; type: cell-based, human
Description: KBM7 cells mutated for five core genes were isolated and the underlying CRISPR-induced mutations were truncations leading to full knockouts (CAND1) or hypomorphic alleles (UBE2M, COPS8, COPS7B, GPS1). […] The observable shift in efficacy was at least 10-fold and up to 1000-fold, thus providing excellent signal to noise ratios. In sum, neddylation-impaired (NEDD^mut) cell line can be applied to find novel, yet uncharacterized MGs.
This is further exemplified when said cells are treated with the compound CC-885 (a molecular glue that reprograms the substrate receptor cereblon/CRBN to degrade GSPT1), or the PROTAC® compound THAL-SNS-032 (known to reprogram the substrate receptor cereblon/CRBN to degrade the cyclin dependent kinase 9, CDK9) (both see appended FIG. 22).
However, not for every cullin RING ligase (CRL), modifications of the COP9 signalosome subunit 8 (COPS8) or CAND1 (Cullin-associated NEDD8-dissociated protein 1; a substrate receptor exchange factor) lead to an ensuing destabilization via auto-degradation. An example for this is the substrate receptor VHL(von-Hippel-Lindau), which is part of the CRL2^VHL ligase complex. […] Therefore, measuring differential sensitivity of cells manipulated to contain altered neddylation states to a molecular glue/PROTAC® compound is a feasible surrogate to measure whether the substrate receptor that is reprogrammed by said molecular glue/PROTAC® undergoes destabilization/auto-degradation upon altering the neddylation states.

DCAF15 [2] = biological target: T2, DCAF15 (Homo sapiens, UniProt Q66K64); assay: DCAF15 HiBit/LgBit luciferase assay (knock-in or ectopic, live-cell or lytic detection); type: cell-based
T2 construct: expressed in transfected cells
Description: Generation of HiBit DCAF15 knock-in cells: HEK293t WT cells at 70-80% confluency were transiently transfected in a 6 well plate with a mix of 3 ug Cas9-sgRNA vector (PX458, addgene #48138, containing sgRNA [NT]), 6 ug of single stranded oligonucleotide donor (ssOND, 20 bp homology flanking the cut site) and 3.6 ug polyethylenimine (FIGS. 10 and 12). 72 hrs post-transfection cells were sorted (SH800 Cell sorter, SONY) for GFP positive cells and recovered for 24 hrs in media. Cells were subsequently seeded at a limiting dilution to generate single clones. Clones were tested after outgrowth for HiBit expression by seeding clonal cells in a black clear bottom 384 well plate and adding Nano-Glo HiBit Lytic buffer (Promega, N3030) reconstituted with recombinant LgBit and Nano-Glo HiBit Lytic Substrate in a 1:1 ratio. HiBit-expressing clones were validated by western blotting and detection of luciferase signal (Promega, N2410) at the correct size. For live cell luciferase detection (FIGS. 11 and 13) 7000 HEK293t cells with a HiBit knock-in at the N-terminus of DCAF15 and stable ectopic expression of LgBit were seeded in 10 uL per well into a black, clear-bottom 384 well plate (Corning, #3764) and incubated over night. 20 uL of media containing 1× Endurazine (Promega, N2570) was added to each well and incubated for 1 hour followed by a baseline luciferase measurement using an EnVision plate reader (Perkin Elmer). Subsequently CSN5i-3 or an equal volume of DMSO was added in 10 uL of media to a final concentration of 500 nM in the assay volume of 40 uL. Luciferase signal was measured hourly for 24 hours. For lytic HiBit detection (FIGS. 11 and 14) 10000 cells were seeded in 10 uL per well into a black clear bottom 384 well plate. After recovery cells were treated by addition of iCSN5-3 or an equal volume of DMSO in 10 uL of media to the cells. After the indicated treatment time cells were lysed by adding 20 uL Nano-Glo HiBit Lytic buffer (Promega, N3030) reconstituted with recombinant LgBit and Nano-Glo HiBit Lytic Substrate. Luciferase signal of each well was normalized to the mean DMSO luciferase signal yielding fold-change over DMSO. Luciferase signal was detected essentially as stated for FIG. 13 with the exception that indisulam (Sigma-Aldrich, SML1225) was added together with CSN5i-3 to cells in 10 uL of media to reach the indicated final concentration (FIG. 15). Luciferase signal of each well and timepoint was normalized to the mean DMSO luciferase signal yielding fold-change over DMSO. […] Luciferase signal was detected essentially as stated for FIG. 15 with the exception that indisulam and dCEMM.1 were added together with iCSN5-3 to cells in the 10 uL treatment to a final concertation of 10 uM (FIG. 17). Luciferase signal of each well and timepoint was normalized to the mean DMSO luciferase signal yielding fold-change over DMSO.

RBM39 [3] = biological target: T1, RBM39; assay: Western blot of RBM39 levels in KBM7 WT versus DCAF15-deficient cells; type: cell-based; parameters: endogenous in cells; conditions: 12 or 16 h treatment
Description: as §1

DCAF15 [4] = biological target: T2, DCAF15; assay: High-throughput screen for DCAF15 stabilization in 293T cells expressing DCAF15 HiBit fusion; type: cell-based; conditions: 10 uM, 384 well, measurements every 120 minutes
Excerpt: Subsequently, in this context, the E3 ligase substrate receptor (SR) stabilization approach was employed in order to identify novel chemical matter that can bind and chemically re-program the substrate receptor DCAF15. To be able to screen a collection of around 8000 small-molecules, a cellular system was developed that enabled monitoring of DCAF15 levels in live cells in multi-well format. To that end, DCAF15 was first knocked out in 293T cells via CRISPR/Cas9 technology. Then, DCAF15 was stably expressed as a HiBit® fusion protein in these cells. After further transducing these cells with LgBit, this allowed live-cell tracing of DCAF15 levels in 384 well format by measuring bioluminescence (FIG. 18). In brief, cells were seeded at a concentration of 250′000 cells/ml in DMEM+10% FCS+25 mM Hepes. The luciferase substrate Endurazine was added at concentrations recommended by the manufacturer. Small-molecules were added at a concentration of 10 uM, and their effect on DCAF15 levels was assayed by continuous bioluminescent imaging (measurements were taken every 120 minutes). […] The known DCAF15 molecular glue indisulam (see FIG. 7) was used as a positive control. In brief, indisulam is known to act as a DCAF15-dependent molecular glue that binds DCAF15 and induced proximity between DCAF15 and RBM39, leading to the degradation of the latter.

T2 sequence (Q66K64 whole entry): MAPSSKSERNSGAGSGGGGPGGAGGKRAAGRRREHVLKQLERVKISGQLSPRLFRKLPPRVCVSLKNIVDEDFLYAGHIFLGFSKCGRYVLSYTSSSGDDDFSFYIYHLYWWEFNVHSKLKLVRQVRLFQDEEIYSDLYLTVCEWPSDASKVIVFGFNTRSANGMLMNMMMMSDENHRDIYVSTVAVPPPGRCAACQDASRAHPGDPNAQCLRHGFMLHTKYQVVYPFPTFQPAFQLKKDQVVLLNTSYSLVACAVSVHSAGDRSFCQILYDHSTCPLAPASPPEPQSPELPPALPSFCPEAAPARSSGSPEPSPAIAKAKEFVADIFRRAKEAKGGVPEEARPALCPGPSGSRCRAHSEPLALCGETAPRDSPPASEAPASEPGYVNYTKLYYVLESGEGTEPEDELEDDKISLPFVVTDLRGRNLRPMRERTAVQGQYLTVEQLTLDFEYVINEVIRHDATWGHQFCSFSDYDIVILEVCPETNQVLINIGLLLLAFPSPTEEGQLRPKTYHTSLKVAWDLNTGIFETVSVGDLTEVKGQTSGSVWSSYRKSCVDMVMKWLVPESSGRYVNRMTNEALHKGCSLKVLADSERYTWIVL

In the case of NS(=O)(=O)c1ccc(S(=O)(=O)Nc2cccc3c(Cl)c[nH]c23)cc1 [indisulam], the “RBM39 levels (western blot)” value (RBM39 [1]) is reported as “destabilization”, the “Cytotoxic activity / sensitivity in COPS8- or CAND1-modified cells” value (KBM7 cells; KBM7 cells modified in COPS8 or CAND1 versus non-modified control) is reported as “resistance to indisulam in both genetic backgrounds; also recorded: reduced activity” and the “Resistance of mutant cells in cellular viability assay” value (KBM7 cells; KBM7 cells mutated in CAND1, UBE2M, COPS8, COPS7B or GPS1 versus wild type) is reported as “caused resistance”. The “DCAF15 re-stabilization (luciferase, fold-change over DMSO)” value (DCAF15 [2]; HiBit knock-in live cells, added together with CSN5i-3 (FIG. 15)) was “rescues DCAF15 from auto-degradation; also recorded: DCAF15 re-stabilization”, the “DCAF15 re-stabilization (luciferase, fold-change over DMSO)” value (DCAF15 [2]; live cells, 10 uM, added together with CSN5i-3 (FIG. 17)) was “rescues DCAF15 from auto-degradation; also recorded: DCAF15 re-stabilization” and the “RBM39 levels (western blot)” value (RBM39 [3]) was “destabilization”. The “DCAF15 stabilization (relative luciferase signal over time)” value (DCAF15 [4]) was “pronounced stabilization of DCAF15 over time; also recorded: identified as positive hits; also recorded: significant stabilization of DCAF15 over time”.
